What was measured:
Assay in all cases: relative viability (nuclei count vs DMSO), 5 days (fraction); higher = more cells survive
AZD1208 + Bortezomib = compound: N[C@@H]1CCCN(c2c(/C=C3\SC(=O)NC3=O)cccc2-c2ccccc2)C1 [AZD1208] + CC(C)C[C@H](NC(=O)[C@H](Cc1ccccc1)NC(=O)c1cnccn1)B(O)O [Bortezomib] (partner 0.002 µM)
Method in brief: (§1)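 Lung cancer cell lines in 1536-well plates were dosed by pin tool the day after seeding, either with one drug alone or with a fixed anchor-drug dose plus five library-drug doses (not always all listed) in √10 steps. After 5 days, cells were fixed and their nuclei stained in one step (final 0.05% Triton X-100, 1% formaldehyde, 1 ug/ml Hoechst), then counted on 4× images. Relative viability is the nuclei count in treated wells divided by that in vehicle wells. Values are medians of duplicate plates.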

AZD1208 + Crizotinib = compound: N[C@@H]1CCCN(c2c(/C=C3\SC(=O)NC3=O)cccc2-c2ccccc2)C1 [AZD1208] + C[C@@H](Oc1cc(-c2cnn(C3CCNCC3)c2)cnc1N)c1c(Cl)ccc(F)c1Cl [Crizotinib] (partner 1 µM)
Method in brief: as §1

AZD1208 + Decitabine = compound: N[C@@H]1CCCN(c2c(/C=C3\SC(=O)NC3=O)cccc2-c2ccccc2)C1 [AZD1208] + Nc1ncn([C@H]2C[C@H](O)[C@@H](CO)O2)c(=O)n1 [Decitabine] (partner 2 µM)
Method in brief: as §1

AZD1208 + Olaparib = compound: N[C@@H]1CCCN(c2c(/C=C3\SC(=O)NC3=O)cccc2-c2ccccc2)C1 [AZD1208] + O=C(c1cc(Cc2n[nH]c(=O)c3ccccc23)ccc1F)N1CCN(C(=O)C2CC2)CC1 [Olaparib] (partner 8 µM)
Method in brief: as §1

UMC-11
relative viability (AZD1208 + Bortezomib; first compound 0.08 µM): 0.742 | relative viability (AZD1208 + Bortezomib; first compound 0.253 µM): 0.755 | relative viability (AZD1208 + Bortezomib; first compound 0.8 µM): 0.644 | relative viability (AZD1208 + Bortezomib; first compound 2.53 µM): 0.62 | relative viability (AZD1208 + Bortezomib; first compound 8 µM): 0.374 | relative viability (AZD1208 + Crizotinib; first compound 0.08 µM): 0.553 | relative viability (AZD1208 + Crizotinib; first compound 0.253 µM): 0.502 | relative viability (AZD1208 + Crizotinib; first compound 0.8 µM): 0.426 | relative viability (AZD1208 + Crizotinib; first compound 2.53 µM): 0.426 | relative viability (AZD1208 + Crizotinib; first compound 8 µM): 0.275 | relative viability (AZD1208 + Decitabine; first compound 0.08 µM): 0.478 | relative viability (AZD1208 + Decitabine; first compound 0.253 µM): 0.513 | relative viability (AZD1208 + Decitabine; first compound 0.8 µM): 0.49 | relative viability (AZD1208 + Decitabine; first compound 2.53 µM): 0.515 | relative viability (AZD1208 + Decitabine; first compound 8 µM): 0.383 | relative viability (AZD1208 + Olaparib; first compound 0.08 µM): 0.27 | relative viability (AZD1208 + Olaparib; first compound 0.253 µM): 0.374 | relative viability (AZD1208 + Olaparib; first compound 0.8 µM): 0.333 | relative viability (AZD1208 + Olaparib; first compound 2.53 µM): 0.309 | relative viability (AZD1208 + Olaparib; first compound 8 µM): 0.264

Source: the supplement of paper PMC10307832
